Read-outs that look alike come from different tables or passages of the source.

For orientation: Ki means a measure of affinity in units of concentration, obtained from inhibition or displacement.

Assay [1] has as its system H929 human cancer cell lines. Briefly: Cellular viability / proliferation (Cell TiterGlo, 72 h). The class given is cell-based. The procedure, abridged:
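Compounds were added as 2-fold serial dilutions from 50 μM (final DMSO <1%) to H929 cells seeded 1,000 per well in 10% FBS medium one day earlier.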
(In ATP-based viability assays light output follows the ATP content of the culture.)

Assay [2] addresses Mcl-1 (Homo sapiens (Human), UniProt Q07820). Briefly: Fluorescence polarization anisotropy (FPA) competition assay, FITC-Bak or FITC-Bim BH3 peptide. Type of assay: binding. As to conditions: read-out: Ki for Inhibition of Mcl-1 by FPA assay.
[3] abbreviates: read-out: GI50 on cellular proliferation of H929 human cancer cell lines, H929 cells, 72 h, Cell TiterGlo, 10% FBS.
[4] abbreviates: Homo sapiens, NCI-H929, 72 h, read-out: GI50 on cellular proliferation of H929 human cancer cell lines, H929 cells, 72 h, Cell TiterGlo, 10% FBS.

Sequence of Mcl-1 (Q07820 172-327): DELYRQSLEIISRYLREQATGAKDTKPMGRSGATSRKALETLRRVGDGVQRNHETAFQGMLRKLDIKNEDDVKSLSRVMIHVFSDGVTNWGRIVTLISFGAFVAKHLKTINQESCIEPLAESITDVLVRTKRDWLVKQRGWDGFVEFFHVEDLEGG

As for `Cc1cc(OCCCc2c3n(c4c(-c5c(C)nn(C)c5C)c(Cl)ccc24)[C@H](C)CN(c2cc(Cl)cc4cc(C(=O)O)oc24)C3=O)cc(C)c1Cl` [Example 259, (R)-5-Chloro-7-(7-chloro-10-(3-(4-chloro-3,5-dimethylphenoxy)propyl)-4-methyl-1-oxo-6-(1,3,5-trimethyl-1H-pyrazol-4-yl)-3,4-dihydropyrazino[1,2-a]indol-2(1H)-yl)benzofuran-2-carboxylic acid], the GI50 in assay [1] (setting [3]) worked out at 3500 nM. Besides, the Ki in assay [2] is < 1 nM.
Consider `CC(=O)c1ccc2c(c1)c(N1C[C@@H](C)n3c(c(CCCOc4cc(C)c(Cl)c(C)c4)c4ccc(Cl)c(-c5c(C)nn(C)c5C)c43)C1=O)cn2C` [Example 260, (R)-2-(5-Acetyl-1-methyl-1H-indol-3-yl)-7-chloro-10-(3-(4-chloro-3,5-dimethylphenoxy)propyl)-4-methyl-6-(1,3,5-trimethyl-1H-pyrazol-4-yl)-3,4-dihydropyrazino[1,2-a]indol-1(2H)-one], for which, in assay [1] (setting [4]), the GI50 worked out at 550 nM. Further, the Ki in assay [2] is < 1 nM.
In the same order, the values of `Cc1cc(OCCCc2c3n(c4c(-c5c(C)nn(CC6CCN(C)C6)c5C)c(Cl)ccc24)[C@H](C)CN(c2cn(C)c4ccc(C(=O)O)cc24)C3=O)cc(C)c1Cl` (stereo partly drawn) [Example 261, 3-((4R)-7-chloro-10-(3-(4-chloro-3,5-dimethylphenoxy)propyl)-6-(3,5-dimethyl-1-((1-methylpyrrolidin-3-yl)methyl)-1H-pyrazol-4-yl)-4-methyl-1-oxo-3,4-dihydropyrazino[1,2-a]indol-2(1H)-yl)-1-methyl-1H-indole-5-carboxylic acid] are 530 nM and < 1 nM.
In the same order, the values of `Cc1cc(OCCCc2c3n(c4c(-c5c(C)nn(CC6CCOCC6)c5C)c(Cl)ccc24)[C@H](C)CN(c2cn(C)c4ccc(C(=O)O)cc24)C3=O)cc(C)c1Cl` [Example 262, (R)-3-(7-chloro-10-(3-(4-chloro-3,5-dimethylphenoxy)propyl)-6-(3,5-dimethyl-1-((tetrahydro-2H-pyran-4-yl)methyl)-1H-pyrazol-4-yl)-4-methyl-1-oxo-3,4-dihydropyrazino[1,2-a]indol-2(1H)-yl)-1-methyl-1H-indole-5-carboxylic acid] are 450 nM and < 1 nM.
In the same order, the values of `Cc1cc(OCCCc2c3n(c4c(-c5c(C)nn(CCN6CCCC6)c5C)c(Cl)ccc24)[C@H](C)CN(c2cn(C)c4ccc(C(=O)O)cc24)C3=O)cc(C)c1Cl` [Example 263, (R)-3-(7-chloro-10-(3-(4-chloro-3,5-dimethylphenoxy)propyl)-6-(3,5-dimethyl-1-(2-(pyrrolidin-1-yl)ethyl)-1H-pyrazol-4-yl)-4-methyl-1-oxo-3,4-dihydropyrazino[1,2-a]indol-2(1H)-yl)-1-methyl-1H-indole-5-carboxylic acid] are 270 nM and 1.8 nM.
As for `Cc1cc(OCCCc2c3n(c4c(-c5c(C)nn(C)c5C)c(Cl)ccc24)[C@H](C)CN(c2nccc4cc(C(=O)O)ccc24)C3=O)cc(C)c1Cl` [Example 264, 1-[(4R)-7-chloro-10-[3-(4-chloro-3,5-dimethyl-phenoxy)propyl]-4-methyl-1-oxo-6-(1,3,5-trimethylpyrazol-4-yl)-3,4-dihydropyrazino[1,2-a]indol-2-yl]isoquinoline-6-carboxylic acid], the GI50 in assay [1] (setting [4]) amounted to 560 nM. Moreover, the Ki in assay [2] is < 1 nM.
Consider `Cc1cc(OCCCc2c3n(c4c(-c5c(C)nn(C)c5C)c(Cl)ccc24)[C@H](C)CN(c2cn(C)c4ccc(S(=O)(=O)N5CCNCC5)cc24)C3=O)cc(C)c1Cl` [Example 265, (R)-7-chloro-10-(3-(4-chloro-3,5-dimethylphenoxy)propyl)-4-methyl-2-(1-methyl-5-(piperazin-1-ylsulfonyl)-1H-indol-3-yl)-6-(1,3,5-trimethyl-1H-pyrazol-4-yl)-3,4-dihydropyrazino[1,2-a]indol-1(2H)-one], for which, in assay [1] (setting [4]), the GI50 was determined as 1500 nM. Further, the Ki in assay [2] amounted to 8.2 nM.
In the case of `CNS(=O)(=O)c1ccc2c(c1)c(N1C[C@@H](C)n3c(c(CCCOc4cc(C)c(Cl)c(C)c4)c4ccc(Cl)c(-c5c(C)nn(C)c5C)c43)C1=O)cn2C` [Example 267, (R)-3-(7-chloro-10-(3-(4-chloro-3,5-dimethylphenoxy)propyl)-4-methyl-1-oxo-6-(1,3,5-trimethyl-1H-pyrazol-4-yl)-3,4-dihydropyrazino[1,2-a]indol-2(1H)-yl)-N,1-dimethyl-1H-indole-5-sulfonamide], the GI50 in assay [1] (setting [4]) was determined as 3100 nM. Also, the Ki in assay [2] was determined as 4.7 nM.
In the same order, the values of `COCCn1cc(N2C[C@@H](C)n3c(c(CCCOc4cc(C)c(Cl)c(C)c4)c4ccc(Cl)c(-c5c(C)nn(C)c5C)c43)C2=O)c2cc(C(=O)O)ccc21` [Example 268, (R)-3-(7-chloro-10-(3-(4-chloro-3,5-dimethylphenoxy)propyl)-4-methyl-1-oxo-6-(1,3,5-trimethyl-1H-pyrazol-4-yl)-3,4-dihydropyrazino[1,2-a]indol-2(1H)-yl)-1-(2-methoxyethyl)-1H-indole-5-carboxylic acid] are 410 nM and < 1 nM.
In the same order, the values of `Cc1cc(OCCCc2c3n(c4c(-c5c(C)ncnc5C)c(Cl)ccc24)[C@H](C)CN(c2cn(C)c4ccc(C(N)=O)cc24)C3=O)cc(C)c1Cl` [Example 269, 3-[(4R)-7-chloro-10-[3-(4-chloro-3,5-dimethyl-phenoxy)propyl]-6-(4,6-dimethylpyrimidin-5-yl)-4-methyl-1-oxo-3,4-dihydropyrazino[1,2-a]indol-2-yl]-1-methyl-indole-5-carboxamide] are 760 nM and 7.4 nM.
Consider `Cc1cc(OCCCc2c3n(c4c(-c5c(C)nn(C)c5C)c(Cl)ccc24)[C@H](C)CN(c2cccc4cc(C(N)=O)n(C)c24)C3=O)cc(C)c1Cl` [Example 270, 7-[(4R)-7-chloro-10-[3-(4-chloro-3,5-dimethyl-phenoxy)propyl]-4-methyl-1-oxo-6-(1,3,5-trimethylpyrazol-4-yl)-3,4-dihydropyrazino[1,2-a]indol-2-yl]-1-methyl-indole-2-carboxamide], for which, in assay [1] (setting [3]), the GI50 stood at 310 nM. The Ki in assay [2] came to 1.1 nM.
Take `Cc1cc(N2C[C@@H](C)n3c(c(CCCOc4cc(C)c(Cl)c(C)c4)c4ccc(Cl)c(-c5c(C)ncnc5C)c43)C2=O)c2c(c1)cc(C(=O)O)n2C` [Example 272, 7-[(4R)-7-chloro-10-[3-(4-chloro-3,5-dimethyl-phenoxy)propyl]-6-(4,6-dimethylpyrimidin-5-yl)-4-methyl-1-oxo-3,4-dihydropyrazino[1,2-a]indol-2-yl]-1,5-dimethyl-indole-2-carboxylic acid]: in assay [1] (setting [4]), the GI50 turned out to be 210 nM. In addition, in assay [2], the inhibitory constant (Ki) was < 1 nM.
`Cc1cc(OCCCc2c3n(c4c(-c5c(C)ncnc5C)c(Cl)ccc24)[C@H](C)CN(c2nn(C)c4cccc(C(=O)O)c24)C3=O)cc(C)c1Cl` [Example 273, 3-[(4R)-7-chloro-10-[3-(4-chloro-3,5-dimethyl-phenoxy)propyl]-6-(4,6-dimethylpyrimidin-5-yl)-4-methyl-1-oxo-3,4-dihydropyrazino[1,2-a]indol-2-yl]-1-methyl-indazole-4-carboxylic acid]: the GI50 in assay [1] (setting [4]) is 4100 nM. For the same molecule, the inhibition constant Ki in assay [2] was < 1 nM.
In the same order, the values of `Cc1cc(OCCCc2c3n(c4c(-c5c(C)nn(C)c5C)c(Cl)ccc24)[C@H](C)CN(c2cn(C)c4ccc(S(=O)(=O)N5CCN(C)CC5)cc24)C3=O)cc(C)c1Cl` [Example 274, (R)-7-chloro-10-(3-(4-chloro-3,5-dimethylphenoxy)propyl)-4-methyl-2-(1-methyl-5-((4-methylpiperazin-1-yl)sulfonyl)-1H-indol-3-yl)-6-(1,3,5-trimethyl-1H-pyrazol-4-yl)-3,4-dihydropyrazino[1,2-a]indol-1(2H)-one] are 2200 nM and 4.8 nM.
In the same order, the values of `Cc1cc(OCCCc2c3n(c4c(-c5c(C)nn(C)c5C)c(Cl)ccc24)[C@H](C)CN(c2c(C)n(C)c4ccc(C(=O)O)cc24)C3=O)cc(C)c1Cl` [Example 275, 3-[(4R)-7-chloro-10-[3-(4-chloro-3,5-dimethyl-phenoxy)propyl]-4-methyl-1-oxo-6-(1,3,5-trimethylpyrazol-4-yl)-3,4-dihydropyrazino[1,2-a]indol-2-yl]-1,2-dimethyl-indole-5-carboxylic acid] are 370 nM and < 1 nM.
In the same order, the values of `Cc1cc(OCCCc2c3n(c4c(-c5c(C)nn(C)c5C)c(Cl)ccc24)[C@H](C)CN(c2cn(C)c4cc(C(N)=O)ccc24)C3=O)cc(C)c1Cl` [Example 277, 3-[(4R)-7-chloro-10-[3-(4-chloro-3,5-dimethyl-phenoxy)propyl]-4-methyl-1-oxo-6-(1,3,5-trimethylpyrazol-4-yl)-3,4-dihydropyrazino[1,2-a]indol-2-yl]-1-methyl-indole-6-carboxamide] are 1400 nM and 6.6 nM.
Consider `CC(=O)N1CCN(S(=O)(=O)c2ccc3c(c2)c(N2C[C@@H](C)n4c(c(CCCOc5cc(C)c(Cl)c(C)c5)c5ccc(Cl)c(-c6c(C)nn(C)c6C)c54)C2=O)cn3C)CC1` [Example 278, (R)-2-(5-((4-acetylpiperazin-1-yl)sulfonyl)-1-methyl-1H-indol-3-yl)-7-chloro-10-(3-(4-chloro-3,5-dimethylphenoxy)propyl)-4-methyl-6-(1,3,5-trimethyl-1H-pyrazol-4-yl)-3,4-dihydropyrazino[1,2-a]indol-1(2H)-one], for which the GI50 in assay [1] (setting [4]) is 1500 nM. In assay [2], the inhibitory constant (Ki) amounted to 5.4 nM.
In the case of `Cc1cc(OCCCc2c3n(c4c(-c5c(C)ncnc5C)c(Cl)ccc24)CCCN(c2cccc4cc(C(=O)O)n(Cc5ccccn5)c24)C3=O)cc(C)c1Cl` [Example 279, 7-(8-Chloro-11-(3-(4-chloro-3,5-dimethylphenoxy)propyl)-7-(4,6-dimethylpyrimidin-5-yl)-1-oxo-4,5-dihydro-1H-[1,4]diazepino[1,2-a]indol-2(3H)-yl)-1-(pyridin-2-ylmethyl)-1H-indole-2-carboxylic acid], in assay [1] (setting [4]), the GI50 turned out to be 3300 nM. Further, the Ki in assay [2] is 1 nM.

The record behind these values is patent US11596639B2, “Substituted indole Mcl-1 inhibitors” (Vanderbilt University, priority 2016, dated 2023).
